Structures can show the parent of a compound that is named as a salt. Active and inactive are the calls of the source.
Columns and labels:
[1] = target: T1, Ubiquitin-conjugating enzyme E2 N (Homo sapiens, UniProt P61088); assay type: functional;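 note: Dose-response confirmation in a TR-FRET assay detecting UBC13-driven polyubiquitin chain formation, inhibition measured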
T1 sequence (P61088 whole entry): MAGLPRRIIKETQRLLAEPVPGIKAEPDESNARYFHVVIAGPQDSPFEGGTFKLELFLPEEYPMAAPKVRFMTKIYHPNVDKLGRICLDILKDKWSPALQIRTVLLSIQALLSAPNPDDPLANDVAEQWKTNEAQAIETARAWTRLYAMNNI

[2] = P. falciparum Dd2 growth inhibitors, dose response, SYBR Green, cherry-picked samples (AID 1159567); assay type: functional, cell-based
[3] = target: T2, Caspase-6 (Homo sapiens, UniProt P55212); experiment: human caspase-6 inhibitors, dose response, biochemical, VEID-R110 fluorescence, cherry-pick (AID 720632)
T2 sequence (P55212 whole entry): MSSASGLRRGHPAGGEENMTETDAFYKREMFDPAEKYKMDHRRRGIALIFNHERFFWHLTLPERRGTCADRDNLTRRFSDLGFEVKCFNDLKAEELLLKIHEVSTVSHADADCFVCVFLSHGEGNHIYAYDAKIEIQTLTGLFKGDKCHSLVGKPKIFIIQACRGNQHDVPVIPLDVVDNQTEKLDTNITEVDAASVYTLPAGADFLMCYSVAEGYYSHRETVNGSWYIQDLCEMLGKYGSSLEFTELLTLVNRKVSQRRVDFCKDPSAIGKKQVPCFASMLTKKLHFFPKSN

[4] = cells; assay type: functional, cell-based
[5] = cells; assay type: functional, cell-based; remark: listed apart in the source
[6] = target: T3, Fatty acid synthase (Homo sapiens, UniProt P49327); experiment: FAS thioesterase domain inhibitors, dose response, biochemical, endpoint fluorescence intensity, uHTS hits (AID 624327); assay type: functional;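 note: fluorescence from hydrolysis of an O-methyl fluorescein acyl ester substrate by the enzyme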
[7] = target: T3, Fatty acid synthase; experiment: FAS thioesterase domain inhibitors, dose response, biochemical, kinetic fluorescence intensity (AID 624326); assay type: functional;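 note: rate of fluorescence rise from hydrolysis of a fluorogenic O-methyl fluorescein ester substrate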
[8] = target: T4, Mannose-6-phosphate isomerase (Homo sapiens, UniProt P34949); experiment: human PMI inhibitors, high substrate, primary screen, biochemical, fluorescence intensity, high mannose 6-phosphate (AID 1220)
T4 sequence (P34949 whole entry): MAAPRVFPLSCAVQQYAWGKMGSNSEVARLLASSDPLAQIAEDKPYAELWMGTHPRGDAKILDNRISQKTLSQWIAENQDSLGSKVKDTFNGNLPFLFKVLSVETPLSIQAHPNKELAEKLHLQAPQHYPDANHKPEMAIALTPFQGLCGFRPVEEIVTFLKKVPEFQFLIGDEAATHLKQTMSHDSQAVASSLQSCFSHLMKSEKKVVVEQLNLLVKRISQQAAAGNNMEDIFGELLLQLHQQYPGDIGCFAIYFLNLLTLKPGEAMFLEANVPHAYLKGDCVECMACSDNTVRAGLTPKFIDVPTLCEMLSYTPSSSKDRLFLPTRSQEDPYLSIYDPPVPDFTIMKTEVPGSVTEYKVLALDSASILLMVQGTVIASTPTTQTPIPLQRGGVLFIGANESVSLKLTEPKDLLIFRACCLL

[9] = target: T5, DNA repair protein RAD52 homolog (Homo sapiens, UniProt P43351); assay type: functional, biochemical
T5 sequence (P43351 whole entry): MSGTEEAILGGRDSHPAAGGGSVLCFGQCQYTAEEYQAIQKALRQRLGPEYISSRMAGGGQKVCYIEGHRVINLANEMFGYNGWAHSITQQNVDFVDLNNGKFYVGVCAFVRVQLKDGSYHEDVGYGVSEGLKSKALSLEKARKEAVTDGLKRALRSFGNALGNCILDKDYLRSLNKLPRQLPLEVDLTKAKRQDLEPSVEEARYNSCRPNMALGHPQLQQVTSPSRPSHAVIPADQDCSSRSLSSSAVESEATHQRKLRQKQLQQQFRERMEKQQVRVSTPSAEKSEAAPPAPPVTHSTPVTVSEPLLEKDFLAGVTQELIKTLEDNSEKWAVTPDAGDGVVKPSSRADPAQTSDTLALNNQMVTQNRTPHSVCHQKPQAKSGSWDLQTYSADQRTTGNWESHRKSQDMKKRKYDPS

[10] = target: Cytochrome P450 2C9 (Homo sapiens, UniProt P11712)
[11] = target: T6, Carboxy-terminal domain RNA polymerase II polypeptide A small phosphatase 1 (Homo sapiens, UniProt Q9GZU7); experiment: inhibitors of CTDSP1, concentration-response testing, biochemical assay, absorbance-based, actives from ultra-high-throughput screening (AID 540297); assay type: functional
T6 sequence (Q9GZU7 whole entry): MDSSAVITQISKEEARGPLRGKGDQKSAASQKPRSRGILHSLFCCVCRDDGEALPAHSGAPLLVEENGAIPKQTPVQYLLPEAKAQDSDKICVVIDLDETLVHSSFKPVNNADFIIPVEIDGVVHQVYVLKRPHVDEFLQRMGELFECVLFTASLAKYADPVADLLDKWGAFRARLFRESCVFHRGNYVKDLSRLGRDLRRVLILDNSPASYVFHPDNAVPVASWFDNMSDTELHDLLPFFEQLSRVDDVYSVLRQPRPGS

[12] = Luminescence Cell-Based Dose Confirmation HTS to Identify Inhibitors of Platelet Dense Granule Release. [Related pubchem assays: 1663 (Primary HTS), 1678 (Summary of Project)]; assay type: functional
[13] = target: Luciferin 4-monooxygenase (Photinus pyralis, UniProt P08659); experiment: firefly luciferase enzyme inhibitors, dose response, biochemical, luminescence (AID 1891)
[14] = test system: H9c2; experiment: cells; assay type: functional, cell-based; conditions: Rattus norvegicus, H9c2, Myocardium;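 note: confirmatory concentration-response retest of ultra-high-throughput screening hits for modulation of myocardial damage; cell death induced by hydrogen peroxide oxidative stress; compound pretreatment for 60 min then peroxide exposure for 2 h; potency is for protecting the cells against peroxide damage rather than for killing them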
[15] = target: T7, Corticotropin-releasing factor receptor 2/Corticotropin-releasing factor-binding protein (Homo sapiens, UniProt P24387+Q13324); experiment: Dose Response confirmation of uHTS hits for small molecule antagonists of the CRF-binding protein and CRF-R2 receptor complex.; assay type: functional; conditions: read-out: IC50_Mean
T7 sequence (Q13324 whole entry): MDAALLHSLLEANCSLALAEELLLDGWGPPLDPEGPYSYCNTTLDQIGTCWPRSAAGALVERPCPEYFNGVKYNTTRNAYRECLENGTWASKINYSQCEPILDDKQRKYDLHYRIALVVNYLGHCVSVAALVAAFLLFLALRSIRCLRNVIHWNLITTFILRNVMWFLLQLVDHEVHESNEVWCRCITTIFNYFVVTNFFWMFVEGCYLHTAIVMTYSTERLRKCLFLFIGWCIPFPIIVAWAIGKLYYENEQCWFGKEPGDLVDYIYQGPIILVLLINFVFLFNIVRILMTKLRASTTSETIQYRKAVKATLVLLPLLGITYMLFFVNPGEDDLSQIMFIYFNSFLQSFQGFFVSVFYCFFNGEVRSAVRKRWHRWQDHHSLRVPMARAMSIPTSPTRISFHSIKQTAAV
T7 sequence (P24387 whole entry): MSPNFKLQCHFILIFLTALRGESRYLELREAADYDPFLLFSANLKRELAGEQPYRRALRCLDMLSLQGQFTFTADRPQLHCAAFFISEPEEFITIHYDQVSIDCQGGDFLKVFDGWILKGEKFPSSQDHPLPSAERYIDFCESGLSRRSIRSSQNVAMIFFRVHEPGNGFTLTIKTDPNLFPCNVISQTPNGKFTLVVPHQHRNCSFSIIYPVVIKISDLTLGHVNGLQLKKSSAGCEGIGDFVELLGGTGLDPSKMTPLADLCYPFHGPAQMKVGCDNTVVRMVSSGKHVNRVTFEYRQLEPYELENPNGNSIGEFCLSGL

[16] = target: T8, RNA-binding protein pos-1 (Caenorhabditis elegans, UniProt G5EF15); experiment: inhibitors of POS-1/mex-3 RNA binding, dose response, biochemical, fluorescence polarization (AID 1964);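 note: purified POS-1 fused to maltose binding protein made in E. coli; potency of compounds blocking POS-1 binding to fluorescent RNA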
T8 sequence (G5EF15 whole entry): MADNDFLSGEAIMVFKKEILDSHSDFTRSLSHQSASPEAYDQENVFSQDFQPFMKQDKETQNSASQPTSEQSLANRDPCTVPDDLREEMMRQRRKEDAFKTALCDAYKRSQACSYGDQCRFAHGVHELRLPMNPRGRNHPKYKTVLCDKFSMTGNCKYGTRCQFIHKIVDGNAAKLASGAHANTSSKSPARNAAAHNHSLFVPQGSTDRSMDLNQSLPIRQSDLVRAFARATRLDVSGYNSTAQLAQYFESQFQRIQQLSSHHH

[17] = target: T7, Corticotropin-releasing factor receptor 2/Corticotropin-releasing factor-binding protein; experiment: activators of CRF receptor 2 with binding protein – uHTS hits, confirmation (AID 602473); assay type: functional; conditions: read-out: EC50_Mean
[18] = target: T9, Zinc finger protein mex-5 (Caenorhabditis elegans, UniProt Q9XUB2); experiment: MEX-5/TCR-2 RNA interaction inhibitors, dose response, biochemical, C. elegans, fluorescence polarization (AID 1960)
T9 sequence (Q9XUB2 whole entry): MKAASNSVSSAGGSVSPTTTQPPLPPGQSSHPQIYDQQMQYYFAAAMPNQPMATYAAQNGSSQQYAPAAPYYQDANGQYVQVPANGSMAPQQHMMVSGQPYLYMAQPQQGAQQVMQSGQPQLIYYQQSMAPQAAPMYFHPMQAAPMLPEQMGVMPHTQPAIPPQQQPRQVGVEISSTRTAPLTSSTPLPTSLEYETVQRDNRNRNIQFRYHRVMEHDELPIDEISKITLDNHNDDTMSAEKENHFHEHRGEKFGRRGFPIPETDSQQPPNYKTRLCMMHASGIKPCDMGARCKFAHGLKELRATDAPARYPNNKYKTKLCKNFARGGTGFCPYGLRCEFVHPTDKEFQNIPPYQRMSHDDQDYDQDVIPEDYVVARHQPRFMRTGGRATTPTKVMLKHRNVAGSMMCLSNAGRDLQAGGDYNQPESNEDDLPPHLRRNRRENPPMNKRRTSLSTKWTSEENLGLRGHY

T3 sequence (P49327 whole entry, the tested form may be a part): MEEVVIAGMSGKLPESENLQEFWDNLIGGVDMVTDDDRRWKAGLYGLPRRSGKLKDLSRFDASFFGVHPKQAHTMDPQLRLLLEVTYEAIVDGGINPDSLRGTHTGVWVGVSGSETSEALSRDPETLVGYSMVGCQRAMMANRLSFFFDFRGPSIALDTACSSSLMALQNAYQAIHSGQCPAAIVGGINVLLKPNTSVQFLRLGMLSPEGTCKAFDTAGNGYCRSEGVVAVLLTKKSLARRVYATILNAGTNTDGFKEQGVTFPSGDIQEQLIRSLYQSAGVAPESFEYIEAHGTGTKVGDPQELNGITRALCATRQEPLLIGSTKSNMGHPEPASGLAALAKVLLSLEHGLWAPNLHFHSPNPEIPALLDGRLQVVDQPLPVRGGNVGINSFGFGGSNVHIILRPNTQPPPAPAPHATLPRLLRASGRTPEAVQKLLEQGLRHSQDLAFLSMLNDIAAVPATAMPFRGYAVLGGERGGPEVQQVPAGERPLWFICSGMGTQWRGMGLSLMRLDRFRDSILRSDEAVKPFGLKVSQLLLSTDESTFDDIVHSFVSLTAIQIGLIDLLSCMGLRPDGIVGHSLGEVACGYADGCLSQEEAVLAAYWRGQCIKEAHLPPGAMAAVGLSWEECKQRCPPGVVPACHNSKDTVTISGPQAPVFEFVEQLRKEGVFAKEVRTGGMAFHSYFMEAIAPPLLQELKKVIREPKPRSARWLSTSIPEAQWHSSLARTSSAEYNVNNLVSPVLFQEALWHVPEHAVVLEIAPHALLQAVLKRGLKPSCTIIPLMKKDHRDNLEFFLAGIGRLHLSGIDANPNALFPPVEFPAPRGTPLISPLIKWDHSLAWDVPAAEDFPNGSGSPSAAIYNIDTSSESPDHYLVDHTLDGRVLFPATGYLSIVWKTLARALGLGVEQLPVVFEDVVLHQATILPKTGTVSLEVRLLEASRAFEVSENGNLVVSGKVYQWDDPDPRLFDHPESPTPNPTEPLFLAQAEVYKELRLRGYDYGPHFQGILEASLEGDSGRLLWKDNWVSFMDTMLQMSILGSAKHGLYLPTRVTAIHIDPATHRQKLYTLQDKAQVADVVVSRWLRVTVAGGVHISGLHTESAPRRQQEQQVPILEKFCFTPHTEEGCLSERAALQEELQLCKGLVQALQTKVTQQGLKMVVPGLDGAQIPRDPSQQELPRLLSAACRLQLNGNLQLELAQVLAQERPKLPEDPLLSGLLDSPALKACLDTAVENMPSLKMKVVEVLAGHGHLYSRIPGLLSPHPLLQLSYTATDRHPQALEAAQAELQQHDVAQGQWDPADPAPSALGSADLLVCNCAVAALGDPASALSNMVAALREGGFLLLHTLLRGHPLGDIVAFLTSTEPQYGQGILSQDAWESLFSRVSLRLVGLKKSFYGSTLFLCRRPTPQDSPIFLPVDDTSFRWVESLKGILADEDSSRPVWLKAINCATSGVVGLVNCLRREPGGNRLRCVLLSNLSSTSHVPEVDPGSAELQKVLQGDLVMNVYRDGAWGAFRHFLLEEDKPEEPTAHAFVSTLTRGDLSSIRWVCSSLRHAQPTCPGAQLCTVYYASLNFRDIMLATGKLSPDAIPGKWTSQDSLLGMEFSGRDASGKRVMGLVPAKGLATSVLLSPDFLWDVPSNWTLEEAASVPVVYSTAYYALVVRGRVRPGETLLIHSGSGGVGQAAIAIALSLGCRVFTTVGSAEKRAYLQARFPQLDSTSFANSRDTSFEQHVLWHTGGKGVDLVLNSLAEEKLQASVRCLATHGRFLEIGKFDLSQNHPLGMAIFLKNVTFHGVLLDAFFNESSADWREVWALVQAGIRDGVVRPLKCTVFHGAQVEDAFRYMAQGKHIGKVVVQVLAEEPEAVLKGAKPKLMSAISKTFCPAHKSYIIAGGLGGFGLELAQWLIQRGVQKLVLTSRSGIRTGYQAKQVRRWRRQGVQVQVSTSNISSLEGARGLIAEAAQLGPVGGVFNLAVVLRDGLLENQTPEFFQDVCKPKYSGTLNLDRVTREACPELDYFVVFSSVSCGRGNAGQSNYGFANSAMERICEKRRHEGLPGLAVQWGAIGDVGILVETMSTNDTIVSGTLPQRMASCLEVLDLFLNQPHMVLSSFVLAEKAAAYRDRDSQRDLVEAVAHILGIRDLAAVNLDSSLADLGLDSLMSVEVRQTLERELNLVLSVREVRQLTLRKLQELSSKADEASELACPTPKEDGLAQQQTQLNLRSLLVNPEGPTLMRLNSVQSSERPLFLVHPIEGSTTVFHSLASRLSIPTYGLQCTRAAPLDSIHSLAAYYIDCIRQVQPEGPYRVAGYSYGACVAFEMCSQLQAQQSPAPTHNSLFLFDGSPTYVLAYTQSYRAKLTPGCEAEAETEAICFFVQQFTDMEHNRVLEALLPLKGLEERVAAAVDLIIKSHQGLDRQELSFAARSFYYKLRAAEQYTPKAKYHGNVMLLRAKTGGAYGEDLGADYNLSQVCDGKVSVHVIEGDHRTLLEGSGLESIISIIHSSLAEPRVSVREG
Sequence of Luciferin 4-monooxygenase (P08659 whole entry): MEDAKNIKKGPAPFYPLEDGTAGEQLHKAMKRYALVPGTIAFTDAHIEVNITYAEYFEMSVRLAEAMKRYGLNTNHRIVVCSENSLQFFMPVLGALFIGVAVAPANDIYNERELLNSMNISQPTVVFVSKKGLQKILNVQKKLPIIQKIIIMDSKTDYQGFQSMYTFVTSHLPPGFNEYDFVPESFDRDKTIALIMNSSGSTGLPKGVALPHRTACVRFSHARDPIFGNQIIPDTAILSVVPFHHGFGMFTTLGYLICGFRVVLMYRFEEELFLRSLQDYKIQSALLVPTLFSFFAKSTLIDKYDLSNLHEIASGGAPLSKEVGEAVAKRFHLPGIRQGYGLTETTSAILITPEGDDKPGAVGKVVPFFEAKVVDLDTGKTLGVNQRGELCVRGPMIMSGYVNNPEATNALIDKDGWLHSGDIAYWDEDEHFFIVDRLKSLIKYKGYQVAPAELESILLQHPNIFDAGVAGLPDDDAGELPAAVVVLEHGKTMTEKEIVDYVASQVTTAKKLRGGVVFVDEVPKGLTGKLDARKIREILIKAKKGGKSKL
Sequence of Cytochrome P450 2C9 (P11712 whole entry, the tested form may be a part): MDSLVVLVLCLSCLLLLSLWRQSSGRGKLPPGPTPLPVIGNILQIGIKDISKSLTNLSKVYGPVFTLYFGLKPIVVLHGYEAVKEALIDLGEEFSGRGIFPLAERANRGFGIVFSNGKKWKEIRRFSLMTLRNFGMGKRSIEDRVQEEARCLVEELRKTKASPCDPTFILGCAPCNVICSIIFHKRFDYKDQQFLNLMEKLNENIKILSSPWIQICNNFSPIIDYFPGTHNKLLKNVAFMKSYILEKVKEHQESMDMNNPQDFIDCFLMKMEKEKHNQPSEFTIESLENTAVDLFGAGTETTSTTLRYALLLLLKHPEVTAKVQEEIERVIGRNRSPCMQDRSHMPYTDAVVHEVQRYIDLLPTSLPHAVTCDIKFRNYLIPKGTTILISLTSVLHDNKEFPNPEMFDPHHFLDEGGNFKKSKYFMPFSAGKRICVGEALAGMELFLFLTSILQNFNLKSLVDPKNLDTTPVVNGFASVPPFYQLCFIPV

CCOC(=O)CCCSc1nnc(CCCCCN2C(=O)c3cccc4cccc(c34)C2=O)o1
IC50 [1]: > 20 µM (inactive)

O=C(C[C@H]1C[C@@H]2c3cc(NC(=O)Nc4ccccc4)ccc3O[C@@H]2[C@H](CO)O1)NCc1ccccc1
AC50 [2]: 12.4 µM (active)

Cc1ccc(S(=O)(=O)NC2=NC(=O)/C(=C/c3cc([N+](=O)[O-])ccc3O)S2)cc1
AC50 [3]: 10.7 µM (active) | EC50 [4]: > 350 µM (not active) | EC50 [5]: 53.1 µM (active)

O=C(Nc1cccc([N+](=O)[O-])c1)N1CCc2ccccc2C1
IC50 [6]: 8.71 µM (active) | IC50 [7]: 6.26 µM (active)

Cc1cc(Cl)ccc1NC(=O)COC(=O)c1cc([N+](=O)[O-])ccc1N1CCOCC1
IC50 [6]: 2.55 µM (active) | IC50 [7]: 2.13 µM (active)

CC(C)n1c(NCc2cc(Cl)ccc2O)nc2ccccc21
IC50 [1]: > 20 µM (inactive)

COc1ccc(-c2cc3ccccc3oc2=O)cc1NC(=S)NC(=O)c1ccc2c(c1)OCCO2
IC50 [1]: > 20 µM (inactive)

CCN(C(=S)Nc1cccnc1)c1cccc2ccccc12
IC50 [8]: > 50 µM (not active)

CSc1ccc2c(c1)C(N1CCN(C)CC1)Cc1ccccc1S2 (centres undefined) [METHIOTHEPIN MESYLATE]
AC50 [9]: 18.7 µM (active) | IC50 [1]: > 20 µM (inactive)

Fc1ccccc1Nc1nc2c(s1)CCc1ccccc1-2
IC50 [8]: > 50 µM (not active)

COC(=O)c1cc(C(=O)OCC(=O)NC2CCCC2)cc([N+](=O)[O-])c1
IC50 [6]: 8.82 µM (active) | IC50 [7]: 9.42 µM (active)

Cc1c(C(=O)O)c(C(=O)O)nc2ccc(N3CCOCC3)cc12
IC50 [8]: > 50 µM (not active)

Oc1ccc(/C=N/N(Cc2ccccc2)c2ccccc2)c(O)c1O
IC50 [8]: > 50 µM (not active)

C[N+]1(CCOc2ccc([N+](=O)[O-])cc2)CCOCC1.[I-]
AC50 [10]: inconclusive | IC50 [11]: 4.86 µM (active)

Cc1cc(C)cc(NC(=O)c2cc(S(=O)(=O)N3CCCC3)cn2C)c1
EC50 [12]: > 112 µM (not active) | EC50 [13]: > 112 µM (not active)

O=C(COC(=O)c1cccnc1Cl)NCc1ccco1
IC50 [11]: 12.4 µM (active)

CCC(=O)/N=c1\sc2cc(F)cc(F)c2n1C
EC50 [12]: > 112 µM (not active) | EC50 [13]: > 112 µM (not active)

COCCN1C(=O)c2oc3ccccc3c(=O)c2C1c1ccc(OC)c(OC)c1 (centres undefined)
IC50 [11]: 5.26 µM (active)

O=C1CC(c2cccc([N+](=O)[O-])c2)c2cc3c(cc2N1)CCC3 (centres undefined)
IC50 [6]: 10.9 µM (active) | IC50 [7]: 15.9 µM (active)

Cc1nc2cc(NC(=O)Nc3ccccc3Cl)ccc2n1C
EC50 [12]: 5.86 µM (active) | EC50 [13]: 5.05 µM (active)

O=C(Cc1ccc(-n2c(=O)c3ccccc3n(Cc3ccc(F)cc3)c2=O)cc1)NCC1CCCO1 (centres undefined)
EC50 [12]: > 112 µM (not active) | EC50 [13]: > 112 µM (not active)

O=C/C(=C\Nc1ccccn1)c1nc2cc(Cl)ccc2o1
IC50 [14]: > 79 µM (inactive) | IC50 [15]: > 47.1 µM (inactive) | EC50 [16]: 67.7 µM (active) | EC50 [17]: > 53 µM (inactive) | EC50 [18]: 36.4 µM (active)

CN1CCN(/C=C2\SC(=S)NC2=O)CC1
EC50 [12]: > 112 µM (not active) | EC50 [13]: > 112 µM (not active)

CCC1(c2ccccc2)NC(=O)N(CC(=O)Nc2cc(Cl)ccc2N2CCN(C)CC2)C1=O (centres undefined)
IC50 [1]: > 20 µM (inactive)

Cc1cc(/C=C2\C(=O)NC(=O)N(c3ccc(Cl)cc3)C2=O)c(C)n1-c1cccc(C(=O)O)c1
EC50 [16]: > 300 µM (not active) | EC50 [18]: 65.9 µM (active) | IC50 [11]: 9.6 µM (active)

Reference: ChEMBL document CHEMBL1201862, “PubChem BioAssay data set” (2004)
